These results are taken from patent US11224565B2, “N-acyldipeptide derivatives and their uses” (NeoStrata Company, Inc., priority 2011, dated 2022).

Peptide text beside a SMILES is read from it.

Common to all, as to type: in vivo, human
The subject of one test is Disturbed keratinization. The experiment in a line: Summary of test results in volunteer subjects: disturbed keratinization. As to conditions: efficacy grade. The text has this:
(§1) In one embodiment, a composition for topical application to test its therapeutic effect was formulated by dissolving a bioactive dipeptide derivative of the present invention in a solution prepared from 40 parts water, 40 parts ethanol and 20 parts propylene glycol by volume (WEP442). In another embodiment, a composition was formulated by dissolving a bioactive dipeptide derivative of the present invention in a non-aqueous solution prepared from 80 parts ethanol and 20 parts propylene glycol by volume (EP82). In yet another embodiment, a composition was formulated first by dissolving a bioactive dipeptide derivative of the present invention in a solution prepared from 80 parts water and 20 parts propylene glycol by volume (WP82), and the solution thus prepared was mixed with an oil-in-water emulsion or cream. In another embodiment, the volunteer subject topically applied the test compositions containing N-acyldipeptide derivatives of the present invention on involved skin or lesions once or twice daily for several weeks or until the involved lesions completely cleared and clinically changed to normal skin. As a control study, the subject also topically applied a vehicle control composition on the involved skin or lesions twice daily for the same period. In yet another embodiment, the volunteer subject topically applied once or twice daily the test compositions containing N-acyldipeptide derivatives of the present invention on the skin site above arthritic joints or painful muscles to provide therapeutic effects for the systemic disorders via topical administration. Some test results are summarized as follows. DK: Disturbed keratinization

For test [1], the system named is Deranged immune disorders and inflammation. The experiment in a line: Summary of test results in volunteer subjects: deranged immune disorders and inflammation. As to conditions: efficacy grade.
Source text: as §1, with “DI: Deranged immune disorders and inflammation” for “DK: Disturbed keratinization”

The subject of the next test is insect bites. The test is described as follows: Topical application to insect bite lesions (itch, erythema, inflammation). To be noted: 10% (w/w) cream on insect bites of left arm. The protocol: A subject, having intensive itch and erythema on their left arm from insect bites, topically applied 10% (w/w) N—Ac-L-Leu-Gly-NH2 cream as formulated in Example 3 on the involved lesions.
A subject had multiple lesions of insect bites (mosquitoes) over the face and arms with itch and inflammatory lesions of more than 1 cm in size. For testing purposes, the subject divided the lesions into three groups: the first group was treated with vehicle control, the second and third groups were treated with active compositions. The subject topically applied twice daily 0.5% (w/v) N—Ac-L-Val-L-Ala-NH2 solution in WEP442, pH 5.9 on the lesions of the second group, and 0.5% (w/v) N—Ac-L-Tyr-L-Tyr-NH2 solution in WEP442, pH 6.7 (Example 5) on the lesions of the third group. […] The lesions in the second and third groups also started to improve over the next few days. At the end of three days, while there was no discernible change in the lesions treated with vehicle control in the first group, the lesions in the second and third groups had 90-100% improvement with nearly complete disappearance of inflammatory lesions.
A subject had multiple lesions of chigger bites (grass mites) over the legs with intensive itch and red inflammatory lesions. The subject topically applied twice daily 0.5% (w/v) N—Ac-L-Val-L-Ala-NH2 solution in WEP442, pH 6.7 (Example 5) on the lesions. […] The lesions on the legs had 100% improvement as judged by clinical evaluation.
(§2) In another embodiment, the volunteer subject topically applied the test compositions containing N-acyldipeptide derivatives of the present invention on involved skin or lesions once or twice daily for several weeks or until the involved lesions completely cleared and clinically changed to normal skin. As a control study, the subject also topically applied a vehicle control composition on the involved skin or lesions twice daily for the same period.

Test [2] concerns inflammation, dermatitis, or eczema lesions. The experiment in a line: Topical application to chronic inflammation, dermatitis, eczema or allergic skin lesions, clinical evaluation.
Source text: as §2

Test [3] relates to Aging related changes of skin, nail and hair. The test is described as follows: Summary of test results in volunteer subjects: aging related changes. As to conditions: efficacy grade.
Source text: as §1, with “AG: Aging related changes of skin, nail and hair” for “DK: Disturbed keratinization”

In another test the test system is Nerve disorders. The test is described as follows: Summary of test results in volunteer subjects: nerve disorders. To be noted: efficacy grade.
Source text: as §1, with “ND: Nerve disorders” for “DK: Disturbed keratinization”

The subject of a further test is forearm skin. The experiment in a line: Skin thickness of forearm by micrometer calipers after topical application. As to conditions: for increase in skin thickness of treated left forearm: 2% (w/v) in WEP442 topically twice daily, vehicle forearm no change. Here is the method: In one of the studies related to skin changes associated with aging, skin thickness was measured by micrometer calipers as follows. The skin was grasped with a 2×6 cm metal hinge; the internal faces of which were coated with emery cloth to prevent slippage, and manually squeezed to threshold subject discomfort. Combined thickness of two whole-skin layers including thickness of the two hinge leaves was measured with micrometer calipers. Thickness of the two hinge leaves was subtracted to determine the actual thickness of two whole-skin layers. Triplicate measurements on treated sites were done and an average number was used for calculation of the skin thickness. In other studies, test sites of skin 17 mm in diameter were used, the circular sites were marked with permanent ink. Intervening control sites were also 17 mm in diameter. Thickness of skin of all sites was measured directly by means of an electronic digital caliper. In this instance the jaws of the caliper were opened to 17 mm, applied with pressure to the skin sites and then closed to firm tightness. Thickness of skin was then read off the screen of the calipers. Measurements of all sites were made in triplicates.

Consider `CC(=O)N[C@@H](CC(C)C)C(=O)NCC(N)=O` [N-Ac-L-Leu-Gly-NH2] (Ac-Leu-Gly-NH2), for which the DK in the test with Disturbed keratinization is on record as 3+ (3+: 75% Efficacy). Besides, the DI in test [1] is on record as 4+ (4+: 95-100% Efficacy). For the same molecule, the “itch after topical application” value with insect bites is given as “stopped within a few minutes”; in test [2] (6% (w/w) oil-in-water emulsion twice daily, chronic eczema large body areas, person) it was “stopped within a few minutes”; in test [2] (7% (w/w) oil-in-water emulsion twice daily, chronic eczema, person), “stopped within a few minutes”; in test [2] (10% (w/w) cream twice daily, chronic eczema right leg, person), “stopped within a few minutes”. The “time the pruritus did not return” value in the test with insect bites was determined as 6 h. The erythema and inflammation result in the test with insect bites (after 12 hours) is on record as “improved”. Further, the “improvement as judged by clinical evaluation” value in test [2] (6% (w/w) oil-in-water emulsion twice daily, chronic eczema large body areas, end of 10 days) is reported as 95%; in test [2] (7% (w/w) oil-in-water emulsion twice daily, chronic eczema, end of 10 days), 90-100%; in test [2] (10% (w/w) cream twice daily, chronic eczema right leg, end of one week), 50%. Moreover, the AG in test [3] is on record as 3+ (3+: 75% Efficacy). Further, the ND in the test with Nerve disorders is 4+ (4+: 95-100% Efficacy).
Regarding `CC(=O)N[C@@H](Cc1ccc(O)cc1)C(=O)N[C@@H](Cc1ccc(O)cc1)C(=O)NN` [N-Ac-L-Tyr-L-Tyr-NHNH2] (HELM PEPTIDE1{[ac].Y.Y.[NN[*:1]]}$$$$V2.0), in the test on Disturbed keratinization, the DK is given as 3+ (3+: 75% Efficacy). Besides, the DI in test [1] is 2+ (2+: 50% Efficacy). The “improvement as judged by clinical evaluation” value in test [2] (chronic eczema, twice daily, two weeks, 0.6% (w/w) N-Ac-L-Tyr-L-Tyr-NHNH2 cream on one set of lesions, 0.7% (w/w) N-Ac-L-Tyr-L-Tyr-NHNHAc cream on another) came out at 75%. In addition, in test [2] (chronic eczema, twice daily, 0.6% (w/w) N-Ac-L-Tyr-L-Tyr-NHNH2 cream on one set of lesions, 0.7% (w/w) N-Ac-L-Tyr-L-Tyr-NHNHAc cream on another), the “itch after topical application” value is reported as “stopped a few minutes after”. In addition, the “appearance of treated left forearm at end of treatment” value with forearm skin (1-3% (w/v) in WEP442 topically twice daily for 1-6 weeks as in the example, vehicle forearm still loose, thin and wrinkled) is “more firm, smooth, plump, and less wrinkled when lifted”. Further, the results for the “increase in skin thickness of treated left forearm” value in the test with forearm skin (after one week), in the test on forearm skin (after three weeks) and in the test on forearm skin (after two weeks) were 15%, 32% and 14%, respectively. Further, in test [3], the AG was 3+ (3+: 75% Efficacy). In addition, in the test on Nerve disorders, the ND was 2+ (2+: 50% Efficacy).
Turning to `CC(=O)NCCC(=O)N[C@@H](Cc1c[nH]cn1)C(N)=O` [N-Ac-βAla-L-His-NH2], the DK in the test on Disturbed keratinization is reported as 2+ (2+: 50% Efficacy). For the same molecule, the DI in test [1] is 2+ (2+: 50% Efficacy). Besides, the AG in test [3] was 2+ (2+: 50% Efficacy). The ND in the test on Nerve disorders was 2+ (2+: 50% Efficacy).
Take `CCC(=O)N[C@@H](CC(C)C)C(=O)NCC(=O)O` [N-Pr-L-Leu-Gly-OH] (HELM PEPTIDE1{[CCC(=O)[*:2]].L.G}$$$$V2.0): in the test on Disturbed keratinization, the DK is given as 2+ (2+: 50% Efficacy). Besides, the DI in test [1] is 3+ (3+: 75% Efficacy). For the same molecule, the AG in test [3] was 2+ (2+: 50% Efficacy). Also, the ND in the test with Nerve disorders is given as 3+ (3+: 75% Efficacy).
For the molecule `CCC(=O)N[C@H](C(=O)N[C@@H](C)C(=O)O)C(C)C` [N-Pr-L-Val-L-Ala-OH] (HELM PEPTIDE1{[CCC(=O)[*:2]].V.A}$$$$V2.0), in the test on Disturbed keratinization, the DK is 2+ (2+: 50% Efficacy). Also, in test [1], the DI is 3+ (3+: 75% Efficacy). Moreover, the AG in test [3] is given as 2+ (2+: 50% Efficacy). For the same molecule, the ND in the test on Nerve disorders is reported as 4+ (4+: 95-100% Efficacy).
As to `NC(=O)CNC(=O)[C@H](Cc1ccc(O)cc1)NC(=O)OCc1ccccc1` [N-Z-L-Tyr-Gly-NH2], the DK in the test with Disturbed keratinization is listed as 2+ (2+: 50% Efficacy). The DI in test [1] is reported as 2+ (2+: 50% Efficacy). The AG in test [3] is on record as 2+ (2+: 50% Efficacy). Besides, in the test with Nerve disorders, the ND is reported as 2+ (2+: 50% Efficacy).
For N,N′-diAc-βAla-L-His-NH2, the DK with Disturbed keratinization is reported as 2+ (2+: 50% Efficacy). The DI in test [1] is reported as 2+ (2+: 50% Efficacy). For the same molecule, the AG in test [3] is given as 2+ (2+: 50% Efficacy). Also, in the test on Nerve disorders, the ND was 2+ (2+: 50% Efficacy).
N-Ac-L-Tyr-L-Hpg-NH2: in the test on Disturbed keratinization, the DK was 2+ (2+: 50% Efficacy). The DI in test [1] is 2+ (2+: 50% Efficacy). In addition, the AG in test [3] is on record as 2+ (2+: 50% Efficacy). For the same molecule, in the test on Nerve disorders, the ND is recorded as 2+ (2+: 50% Efficacy).
